Here are results for 13 compounds from ChEMBL document CHEMBL5291721, “A preclinical secondary pharmacology resource illuminates target-adverse drug reaction associations of marketed drugs” (Nat Commun, 2023).

Each structure is given as a SMILES string. A value given as a limit tells only on which side of the number the result lay.

For assay [1], the target named is Kappa-type opioid receptor (Homo sapiens, UniProt P41145).
The target of assay [2] is T1, Muscarinic acetylcholine receptor M1 (Homo sapiens, UniProt P11229).
T1 sequence (P11229 whole entry): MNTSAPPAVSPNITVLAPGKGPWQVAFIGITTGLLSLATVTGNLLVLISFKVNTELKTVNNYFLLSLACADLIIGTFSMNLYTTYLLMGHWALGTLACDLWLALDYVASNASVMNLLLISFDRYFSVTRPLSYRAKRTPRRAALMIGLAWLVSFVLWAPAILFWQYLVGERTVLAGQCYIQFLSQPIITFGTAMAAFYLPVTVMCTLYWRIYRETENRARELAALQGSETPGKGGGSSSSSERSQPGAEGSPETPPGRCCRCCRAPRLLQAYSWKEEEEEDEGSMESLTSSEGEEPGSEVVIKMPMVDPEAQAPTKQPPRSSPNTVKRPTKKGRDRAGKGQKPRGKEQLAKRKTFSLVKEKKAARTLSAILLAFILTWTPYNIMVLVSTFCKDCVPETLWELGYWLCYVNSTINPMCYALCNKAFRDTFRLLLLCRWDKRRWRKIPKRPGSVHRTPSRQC
In kind it is functional.

The target of assay [3] is D(3) dopamine receptor (Homo sapiens, UniProt P35462).
D(3) dopamine receptor, sequence (P35462 whole entry): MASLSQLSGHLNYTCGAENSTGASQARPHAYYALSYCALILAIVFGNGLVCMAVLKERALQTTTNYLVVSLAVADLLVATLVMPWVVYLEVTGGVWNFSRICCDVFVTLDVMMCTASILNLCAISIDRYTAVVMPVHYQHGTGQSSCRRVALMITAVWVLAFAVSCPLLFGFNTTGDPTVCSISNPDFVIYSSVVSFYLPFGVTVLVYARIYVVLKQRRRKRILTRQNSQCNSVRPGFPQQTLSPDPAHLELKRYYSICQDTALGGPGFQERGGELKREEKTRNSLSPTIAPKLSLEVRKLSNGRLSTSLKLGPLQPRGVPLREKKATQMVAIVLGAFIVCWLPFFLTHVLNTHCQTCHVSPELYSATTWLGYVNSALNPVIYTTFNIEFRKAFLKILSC
The target of assay [4] is Voltage-dependent L-type calcium channel subunit alpha-1C (Rattus norvegicus, UniProt P22002). Type of assay: functional.
Voltage-dependent L-type calcium channel subunit alpha-1C, sequence (P22002 whole entry): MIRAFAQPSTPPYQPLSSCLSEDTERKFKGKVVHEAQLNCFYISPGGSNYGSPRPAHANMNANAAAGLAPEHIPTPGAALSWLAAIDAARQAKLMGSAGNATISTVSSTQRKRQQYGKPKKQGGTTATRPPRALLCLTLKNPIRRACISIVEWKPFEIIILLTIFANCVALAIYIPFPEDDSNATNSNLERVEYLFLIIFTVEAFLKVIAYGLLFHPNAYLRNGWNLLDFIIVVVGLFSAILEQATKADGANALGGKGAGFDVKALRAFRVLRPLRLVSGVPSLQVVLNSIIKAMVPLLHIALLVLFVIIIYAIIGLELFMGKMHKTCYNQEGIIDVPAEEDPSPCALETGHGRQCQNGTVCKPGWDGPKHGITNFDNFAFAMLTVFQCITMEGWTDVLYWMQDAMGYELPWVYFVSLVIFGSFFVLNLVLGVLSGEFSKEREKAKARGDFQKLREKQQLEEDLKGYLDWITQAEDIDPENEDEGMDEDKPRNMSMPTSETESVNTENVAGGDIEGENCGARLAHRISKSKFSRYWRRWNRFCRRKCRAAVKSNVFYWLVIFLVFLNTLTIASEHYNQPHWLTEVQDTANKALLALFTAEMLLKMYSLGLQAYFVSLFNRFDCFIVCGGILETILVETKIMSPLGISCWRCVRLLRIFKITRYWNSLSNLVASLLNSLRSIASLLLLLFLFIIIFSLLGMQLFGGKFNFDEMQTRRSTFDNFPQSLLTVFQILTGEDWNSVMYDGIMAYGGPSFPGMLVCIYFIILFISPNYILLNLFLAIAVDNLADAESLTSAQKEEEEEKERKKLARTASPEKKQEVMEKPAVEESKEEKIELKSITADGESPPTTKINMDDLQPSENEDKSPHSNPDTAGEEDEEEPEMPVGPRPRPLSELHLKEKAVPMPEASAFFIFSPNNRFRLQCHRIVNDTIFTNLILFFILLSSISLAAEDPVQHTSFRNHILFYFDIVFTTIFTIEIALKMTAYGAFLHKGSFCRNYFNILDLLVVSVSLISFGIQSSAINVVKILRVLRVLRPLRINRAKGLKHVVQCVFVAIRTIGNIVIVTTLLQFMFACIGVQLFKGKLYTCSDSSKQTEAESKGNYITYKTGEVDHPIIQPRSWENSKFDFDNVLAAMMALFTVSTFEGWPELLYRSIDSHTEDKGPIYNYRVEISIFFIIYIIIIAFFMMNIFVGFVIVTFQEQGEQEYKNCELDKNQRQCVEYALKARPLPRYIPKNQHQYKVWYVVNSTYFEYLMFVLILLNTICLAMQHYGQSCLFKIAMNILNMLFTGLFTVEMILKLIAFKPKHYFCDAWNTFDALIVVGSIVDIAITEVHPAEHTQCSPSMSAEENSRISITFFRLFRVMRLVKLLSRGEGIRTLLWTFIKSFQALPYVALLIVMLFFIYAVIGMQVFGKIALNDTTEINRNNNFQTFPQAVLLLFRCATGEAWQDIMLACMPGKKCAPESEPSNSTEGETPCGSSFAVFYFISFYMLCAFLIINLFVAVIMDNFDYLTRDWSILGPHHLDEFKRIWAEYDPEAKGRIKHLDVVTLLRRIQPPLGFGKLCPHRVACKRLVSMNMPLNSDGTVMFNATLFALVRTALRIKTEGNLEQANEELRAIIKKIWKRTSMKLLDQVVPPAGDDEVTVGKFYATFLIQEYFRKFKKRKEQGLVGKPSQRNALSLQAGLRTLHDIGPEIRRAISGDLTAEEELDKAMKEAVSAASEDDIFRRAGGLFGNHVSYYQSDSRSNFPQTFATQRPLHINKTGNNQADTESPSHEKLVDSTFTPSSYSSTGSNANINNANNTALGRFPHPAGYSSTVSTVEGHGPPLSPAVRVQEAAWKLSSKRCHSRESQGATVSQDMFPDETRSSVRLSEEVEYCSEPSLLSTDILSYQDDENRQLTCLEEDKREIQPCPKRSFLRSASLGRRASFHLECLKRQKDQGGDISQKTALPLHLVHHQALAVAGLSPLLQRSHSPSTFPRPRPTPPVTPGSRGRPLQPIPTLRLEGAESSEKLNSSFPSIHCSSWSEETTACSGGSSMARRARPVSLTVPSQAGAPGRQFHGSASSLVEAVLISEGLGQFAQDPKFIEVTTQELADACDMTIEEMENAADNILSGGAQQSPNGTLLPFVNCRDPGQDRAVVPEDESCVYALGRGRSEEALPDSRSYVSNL
The target of assay [5] is T2, Progesterone receptor (Homo sapiens, UniProt P06401).
T2 sequence (P06401 whole entry): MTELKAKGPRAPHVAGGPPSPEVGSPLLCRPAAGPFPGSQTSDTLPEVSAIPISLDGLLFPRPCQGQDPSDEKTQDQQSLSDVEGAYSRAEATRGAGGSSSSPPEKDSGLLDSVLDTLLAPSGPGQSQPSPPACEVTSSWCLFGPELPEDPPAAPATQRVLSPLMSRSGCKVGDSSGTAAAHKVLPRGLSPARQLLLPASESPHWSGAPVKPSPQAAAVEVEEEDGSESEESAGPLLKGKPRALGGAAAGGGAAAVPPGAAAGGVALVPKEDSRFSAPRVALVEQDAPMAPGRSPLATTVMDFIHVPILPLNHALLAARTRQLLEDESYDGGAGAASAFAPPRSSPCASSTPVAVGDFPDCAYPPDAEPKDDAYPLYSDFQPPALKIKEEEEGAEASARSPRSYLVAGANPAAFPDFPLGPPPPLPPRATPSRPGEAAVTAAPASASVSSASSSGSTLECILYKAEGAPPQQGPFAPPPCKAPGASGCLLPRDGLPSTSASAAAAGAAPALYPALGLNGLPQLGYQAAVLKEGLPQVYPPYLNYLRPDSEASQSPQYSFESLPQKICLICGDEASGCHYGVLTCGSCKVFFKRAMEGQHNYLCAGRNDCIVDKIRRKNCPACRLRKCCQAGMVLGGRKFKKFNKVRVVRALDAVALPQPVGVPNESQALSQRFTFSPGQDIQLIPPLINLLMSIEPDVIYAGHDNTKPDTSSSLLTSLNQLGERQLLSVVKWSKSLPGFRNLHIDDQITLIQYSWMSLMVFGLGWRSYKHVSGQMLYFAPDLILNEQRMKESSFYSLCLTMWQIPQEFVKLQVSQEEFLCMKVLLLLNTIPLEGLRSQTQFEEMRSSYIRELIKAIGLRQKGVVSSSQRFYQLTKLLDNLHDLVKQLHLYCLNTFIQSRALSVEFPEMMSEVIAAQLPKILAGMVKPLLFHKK
Type of assay: functional.

The target in assay [6] is T2, Progesterone receptor. In kind it is functional. The source holds these as a separate data set.
Assay [7] addresses Histamine H1 receptor (Homo sapiens, UniProt P35367).
Assay [8] concerns the target Beta-2 adrenergic receptor (Homo sapiens, UniProt P07550).
Assay [9] has as its target T3, Alpha-2B adrenergic receptor (Homo sapiens, UniProt P18089).
T3 sequence (P18089 whole entry): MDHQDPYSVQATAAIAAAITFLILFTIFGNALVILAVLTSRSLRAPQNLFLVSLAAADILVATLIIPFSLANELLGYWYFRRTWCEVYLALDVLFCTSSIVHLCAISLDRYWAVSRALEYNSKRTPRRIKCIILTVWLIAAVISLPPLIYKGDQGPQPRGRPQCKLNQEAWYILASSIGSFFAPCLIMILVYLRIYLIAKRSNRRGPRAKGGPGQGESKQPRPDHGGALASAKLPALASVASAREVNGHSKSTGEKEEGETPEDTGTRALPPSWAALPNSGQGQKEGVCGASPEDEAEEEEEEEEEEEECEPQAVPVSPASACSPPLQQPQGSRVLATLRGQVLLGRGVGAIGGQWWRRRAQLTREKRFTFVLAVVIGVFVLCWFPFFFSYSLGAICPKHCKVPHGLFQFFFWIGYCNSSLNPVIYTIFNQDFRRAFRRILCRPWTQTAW

The target in assay [10] is Sodium-dependent serotonin transporter (Homo sapiens, UniProt P31645).
Sodium-dependent serotonin transporter, sequence (P31645 whole entry): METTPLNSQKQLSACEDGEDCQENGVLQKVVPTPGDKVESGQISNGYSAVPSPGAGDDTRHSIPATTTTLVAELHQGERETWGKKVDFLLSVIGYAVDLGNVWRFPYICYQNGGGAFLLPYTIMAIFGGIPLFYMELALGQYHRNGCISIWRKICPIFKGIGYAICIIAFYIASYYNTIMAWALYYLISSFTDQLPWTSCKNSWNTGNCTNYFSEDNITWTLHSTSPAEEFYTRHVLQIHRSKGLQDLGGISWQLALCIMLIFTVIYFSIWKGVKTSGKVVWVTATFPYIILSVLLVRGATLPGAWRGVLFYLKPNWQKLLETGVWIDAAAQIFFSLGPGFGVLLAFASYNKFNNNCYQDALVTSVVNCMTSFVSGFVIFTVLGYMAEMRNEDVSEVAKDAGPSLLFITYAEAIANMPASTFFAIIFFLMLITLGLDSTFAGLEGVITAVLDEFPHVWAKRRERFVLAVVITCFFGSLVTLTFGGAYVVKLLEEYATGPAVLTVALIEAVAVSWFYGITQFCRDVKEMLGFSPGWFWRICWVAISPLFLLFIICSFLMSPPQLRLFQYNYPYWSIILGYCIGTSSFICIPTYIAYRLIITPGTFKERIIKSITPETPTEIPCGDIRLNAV
Assay [11] deals with Mu-type opioid receptor (Homo sapiens, UniProt P35372). The assay is described as follows: biochemical. In kind it is functional.
Mu-type opioid receptor, sequence (P35372 whole entry): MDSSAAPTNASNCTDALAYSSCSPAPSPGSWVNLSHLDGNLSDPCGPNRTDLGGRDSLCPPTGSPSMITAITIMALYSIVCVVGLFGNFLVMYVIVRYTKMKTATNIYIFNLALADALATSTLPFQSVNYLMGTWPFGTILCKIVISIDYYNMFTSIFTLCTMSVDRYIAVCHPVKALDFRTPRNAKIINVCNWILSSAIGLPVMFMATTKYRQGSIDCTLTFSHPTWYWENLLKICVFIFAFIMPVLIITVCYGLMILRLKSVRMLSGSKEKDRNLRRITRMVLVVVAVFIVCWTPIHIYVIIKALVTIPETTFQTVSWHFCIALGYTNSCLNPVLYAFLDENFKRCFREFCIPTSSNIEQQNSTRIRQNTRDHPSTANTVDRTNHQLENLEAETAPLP
In assay [12] the target is T4, Endothelin-1 receptor (Homo sapiens, UniProt P25101).
T4 sequence (P25101 whole entry): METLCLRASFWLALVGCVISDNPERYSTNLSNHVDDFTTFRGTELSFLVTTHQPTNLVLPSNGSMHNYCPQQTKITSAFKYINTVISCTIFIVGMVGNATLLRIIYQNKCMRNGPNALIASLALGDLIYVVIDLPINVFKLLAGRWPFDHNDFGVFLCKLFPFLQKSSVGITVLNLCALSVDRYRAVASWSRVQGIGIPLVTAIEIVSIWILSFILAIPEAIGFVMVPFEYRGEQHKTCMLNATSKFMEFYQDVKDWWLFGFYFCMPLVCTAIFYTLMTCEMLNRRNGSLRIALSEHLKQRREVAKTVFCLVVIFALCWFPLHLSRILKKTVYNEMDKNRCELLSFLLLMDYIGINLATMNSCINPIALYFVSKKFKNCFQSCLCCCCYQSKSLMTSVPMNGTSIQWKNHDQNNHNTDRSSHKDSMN
Further: assay procedure not described here.

Histamine H1 receptor, sequence (P35367 whole entry): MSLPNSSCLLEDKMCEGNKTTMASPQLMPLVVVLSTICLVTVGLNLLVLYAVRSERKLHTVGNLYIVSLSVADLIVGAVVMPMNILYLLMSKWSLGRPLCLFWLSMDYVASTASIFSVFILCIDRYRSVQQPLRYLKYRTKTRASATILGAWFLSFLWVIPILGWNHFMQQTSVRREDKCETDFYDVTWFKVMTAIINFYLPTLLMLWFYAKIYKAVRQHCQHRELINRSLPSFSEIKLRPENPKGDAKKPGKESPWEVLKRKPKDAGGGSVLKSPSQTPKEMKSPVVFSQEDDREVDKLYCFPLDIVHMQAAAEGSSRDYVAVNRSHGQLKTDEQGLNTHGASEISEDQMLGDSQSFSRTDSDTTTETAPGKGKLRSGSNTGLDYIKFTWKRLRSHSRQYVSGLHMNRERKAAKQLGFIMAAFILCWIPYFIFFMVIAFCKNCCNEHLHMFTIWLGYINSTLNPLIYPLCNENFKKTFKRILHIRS
Kappa-type opioid receptor, sequence (P41145 whole entry): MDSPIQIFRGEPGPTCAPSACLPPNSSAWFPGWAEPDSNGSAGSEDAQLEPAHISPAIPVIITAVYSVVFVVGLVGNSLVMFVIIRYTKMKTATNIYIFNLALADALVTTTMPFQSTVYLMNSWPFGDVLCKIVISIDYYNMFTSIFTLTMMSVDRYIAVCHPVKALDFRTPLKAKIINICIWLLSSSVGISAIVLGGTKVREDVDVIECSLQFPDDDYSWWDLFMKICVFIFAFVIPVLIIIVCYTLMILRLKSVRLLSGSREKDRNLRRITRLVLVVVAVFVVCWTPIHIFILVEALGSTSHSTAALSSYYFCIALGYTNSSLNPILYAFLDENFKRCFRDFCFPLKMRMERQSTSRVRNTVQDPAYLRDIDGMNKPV
Beta-2 adrenergic receptor, sequence (P07550 whole entry): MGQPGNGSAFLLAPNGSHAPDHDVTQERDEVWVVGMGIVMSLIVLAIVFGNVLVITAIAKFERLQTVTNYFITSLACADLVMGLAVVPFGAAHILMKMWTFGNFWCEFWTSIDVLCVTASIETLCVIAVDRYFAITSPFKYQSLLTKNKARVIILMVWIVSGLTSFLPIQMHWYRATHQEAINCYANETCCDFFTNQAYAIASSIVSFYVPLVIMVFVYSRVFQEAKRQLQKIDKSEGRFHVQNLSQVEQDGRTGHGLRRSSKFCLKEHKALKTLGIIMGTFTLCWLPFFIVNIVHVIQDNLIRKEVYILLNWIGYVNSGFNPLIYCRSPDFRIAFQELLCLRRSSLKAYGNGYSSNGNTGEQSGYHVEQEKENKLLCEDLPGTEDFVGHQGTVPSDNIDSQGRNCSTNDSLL

Regarding `CC(=O)OCC(=O)[C@@]1(O)CC[C@H]2[C@@H]3CCC4=CC(=O)CC[C@]4(C)C3=CC[C@@]21C` [ANECORTAVE ACETATE], the AC50 in assay [1] was over 10 µM; in assay [2], over 10 µM; in assay [3], over 30 µM; in assay [4], over 10 µM; in [5], over 30 µM; in assay [6], over 30 µM. For the same compound, the AC50 in assay [7], in assay [8], in assay [9] and in [10] was over 10 µM each time.
In the case of `NS(=O)(=O)c1cc2c(cc1C(F)(F)F)NC(Cc1ccccc1)NS2(=O)=O` (centres undefined) [BENDROFLUMETHIAZIDE], the AC50 was over 10 µM in [1]; over 10 µM in assay [2]; over 30 µM in assay [3]; over 10 µM in [4]; over 10 µM in assay [5]; over 10 µM in [6]. The AC50 in assay [7] is over 10 µM; in assay [8], over 10 µM; in [9], over 10 µM; in assay [10], over 30 µM.
For the compound `CCCCC1(CC)C(=O)NC(=O)NC1=O` [BUTETHAL], the half-maximal activity concentration (AC50) in [1], in assay [11], in [2], in [3], in [5] and in [6] was over 30 µM throughout. Besides, the AC50 in [12], in assay [7], in assay [9] and in [10] was over 30 µM throughout.
Regarding `CO[C@@]1(NC(=O)Cc2cccs2)C(=O)N2C(C(=O)O)=C(COC(N)=O)CS[C@@H]21` [CEFOXITIN], the AC50 in assay [1], in assay [11], in assay [2], in assay [3], in [5] and in [6] was over 30 µM each time. The AC50 in [12], in assay [7], in assay [9] and in assay [10] was over 30 µM throughout.
With `CCN(CC)CCOC(=O)c1ccc(N)cc1Cl` [CHLOROPROCAINE], the AC50 in assay [1], in assay [11], in [2], in [3], in [5] and in assay [6] was over 30 µM throughout. For the same compound, the AC50 in assay [12], in assay [7], in [9] and in [10] was over 30 µM throughout.
In the case of `COCCOC(=O)C1=C(C)NC(C)=C(C(=O)OC/C=C/c2ccccc2)C1c1cccc([N+](=O)[O-])c1` (centres undefined) [CILNIDIPINE], the AC50 in assay [1], in [11], in assay [2], in [3], in assay [5] and in assay [6] was over 30 µM each time. Besides, the AC50 in assay [12], in assay [7], in assay [9] and in assay [10] was over 30 µM each time.
With `O=C(O)c1ccccc1OP(=O)(O)O` [FOSFOSAL], the AC50 in assay [1], in assay [11], in [2], in assay [3], in assay [5] and in [6] was over 30 µM throughout. Besides, the AC50 in assay [12], in [7], in assay [9] and in assay [10] was over 30 µM throughout.
Turning to `CCCC[C@H](C)C[C@H](O)/C=C/[C@H]1[C@H](O)CC(=O)[C@@H]1CCCC/C=C/C(=O)O` [LIMAPROST], the concentration at half-maximal activity (AC50) in assay [1], in [11], in assay [2], in assay [3], in [5] and in [6] was over 30 µM each time. For the same compound, the AC50 in assay [12], in assay [7], in assay [9] and in assay [10] was over 30 µM in each case.
With `CC(=O)Nc1c(I)c(C(=O)N[C@H]2C(O)O[C@H](CO)[C@@H](O)[C@@H]2O)c(I)c(N(C)C(C)=O)c1I` (some centres undefined) [METRIZAMIDE], the half-maximal activity concentration (AC50) in [1] was over 10 µM; in [2], over 10 µM; in assay [3] it was over 30 µM; in [4], over 10 µM; in assay [5] it was over 10 µM; in assay [6], over 10 µM. Also, the concentration at half-maximal activity (AC50) in assay [7], in assay [8], in [9] and in assay [10] was over 10 µM each time.
Consider `O=C1Nc2ccc(Cl)cc2C(c2ccccc2)=NC1O` (centres undefined) [OXAZEPAM], for which the AC50 was over 10 µM in [1]; over 10 µM in assay [2]; over 10 µM in assay [3]; over 10 µM in [4]; over 30 µM in assay [12]; over 10 µM in assay [7]. The AC50 in [8], in assay [9] and in [10] was over 10 µM each time.
With `CC1(C)C(C=C(Cl)Cl)C1C(=O)OCc1cccc(Oc2ccccc2)c1` (centres undefined) [PERMETHRIN], the AC50 was over 10 µM in [1]; over 10 µM in assay [2]; over 30 µM in assay [3]; over 10 µM in assay [4]; over 30 µM in assay [5]; over 30 µM in assay [6]. For the same compound, the AC50 in assay [7], in [8], in assay [9] and in [10] was over 10 µM in each case.
Regarding `NC(=O)CCC/N=C(\c1ccc(Cl)cc1)c1cc(F)ccc1O` [PROGABIDE], the AC50 in assay [1] was over 10 µM; in assay [2] it was over 10 µM; in assay [3], over 30 µM; in [4], over 10 µM; in [5], over 10 µM; in [6], over 10 µM. Also, the AC50 in assay [7], in [8], in [9] and in assay [10] was over 10 µM in each case.
Turning to `C=CC(N)CCC(=O)O` (centres undefined) [VIGABATRIN], the AC50 in [1] is over 10 µM; in [2], over 10 µM; in assay [3], over 30 µM; in [4], over 10 µM; in assay [5] it was over 10 µM; in assay [6] it was over 10 µM. The AC50 in [7] is over 10 µM; in assay [8], over 10 µM; in assay [9], over 10 µM; in assay [10] it was 12.2 µM.
